Results from ChEMBL document CHEMBL5154778, “Discovery and Structure-Based Optimization of Novel Atg4B Inhibitors for the Treatment of Castration-Resistant Prostate Cancer” (J Med Chem, 2022).
The source made the active and inactive calls. The rule behind the calls is not given here.

Key:
Cysteine protease ATG4B [1] = molecular target: T1, Cysteine protease ATG4B (Homo sapiens, UniProt Q9Y4P1); assay: Inhibition of recombinant ATG4B (unknown origin) expressed in Escherichia coli BL21(DE3) pLysS cells using LC3-GST as substrate incubated for 3 hrs by coomassie brilliant blue staining based assay
T1 sequence (Q9Y4P1 whole entry): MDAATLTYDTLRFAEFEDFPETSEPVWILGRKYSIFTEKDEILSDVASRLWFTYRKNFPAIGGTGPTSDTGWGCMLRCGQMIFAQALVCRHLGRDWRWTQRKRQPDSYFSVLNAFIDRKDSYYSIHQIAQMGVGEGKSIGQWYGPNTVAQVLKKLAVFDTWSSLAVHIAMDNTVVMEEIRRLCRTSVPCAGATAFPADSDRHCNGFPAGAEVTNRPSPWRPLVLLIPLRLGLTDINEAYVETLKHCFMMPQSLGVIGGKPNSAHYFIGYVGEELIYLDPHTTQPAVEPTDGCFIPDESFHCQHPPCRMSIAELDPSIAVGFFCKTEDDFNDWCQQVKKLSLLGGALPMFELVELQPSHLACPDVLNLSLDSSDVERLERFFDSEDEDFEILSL

Phospholipase A2 = Phospholipase A2 (Homo sapiens, UniProt P04054); assay: Inhibition of PLA2 (unknown origin)
Homo sapiens = organism: Homo sapiens; assay: Selectivity ratio of IC50 for inhibition of PLA2 (unknown origin) to IC50 for inhibition of recombinant ATG4B (unknown origin) expressed in Escherichia coli BL21(DE3) pLysS cells
LNCaP [2] = assay: Induction of autophagy in human LNCaP cells assessed as increase in GABARAP2 level at 10 uM preincubated for 2 hrs followed by medium change into aminoacid free medium for 3 hrs by immunoblotting analysis; assay type: functional, cell-based; details: time 5.0 hrs
[3] = molecular target: T2, Cysteine protease ATG4B (Homo sapiens) (UniProt Q9Y4P1); assay: Reversible inhibition of recombinant ATG4B (unknown origin) expressed in Escherichia coli BL21(DE3) pLysS cells at 100 uM using LC3-GST as substrate preincubated for 30 mins with 0.3 uM LC3-GST followed by dialysis and again incubated with 3 uM LC3-GST for 15 mins by coomassie brilliant blue staining based assay; details: time 45.0 min
T2 sequence (whole entry): T1 sequence (Q9Y4P1 whole entry)

[4] = molecular target: T2, Cysteine protease ATG4B (Homo sapiens); assay: Inhibition of recombinant ATG4B (unknown origin) expressed in Escherichia coli BL21(DE3) pLysS cells at 10 uM using LC3-GST as substrate incubated for 3 hrs by coomassie brilliant blue staining based assay
[5] = molecular target: T2, Cysteine protease ATG4B (Homo sapiens); assay: Inhibition of recombinant ATG4B (unknown origin) expressed in Escherichia coli BL21(DE3) pLysS cells at 20 to 50 uM using LC3-GST as substrate by coomassie brilliant blue staining based assay; details: dose 20-50 µM, time 15-180 min, TDE = time-dependent effect
Cysteine protease ATG4B [6] = molecular target: T1, Cysteine protease ATG4B; assay: Inhibition of recombinant ATG4B (unknown origin) expressed in Escherichia coli BL21(DE3) pLysS cells assessed as inhibition constant using LC3-GST as substrate incubated for 3 hrs by coomassie brilliant blue staining based assay
LNCaP [7] = assay: Inhibition of AFM induced autophagy in human LNCaP cells assessed as restoration of p62 expression at 5 uM by Western blot analysis; assay type: functional, cell-based
LNCaP [8] = assay: Inhibition of AFM induced autophagy in human LNCaP cells assessed as suppression of autophagosome by DAP green staining based assay; assay type: functional, cell-based
LNCaP [9] = assay: Inhibition of abiraterone induced autophagy in human LNCaP cells at 10 uM preincubated for 2 hrs followed by abiraterone addition and measured after 24 hrs by DAP green staining based assay; assay type: functional, cell-based; details: time 26.0 hrs
LNCaP [10] = assay: Inhibition of enzalutamide induced autophagy in human LNCaP cells at 10 uM preincubated for 2 hrs followed by enzalutamide addition and measured after 24 hrs by DAP green staining based assay; assay type: functional, cell-based; details: time 26.0 hrs
LNCaP [11] = assay: Induction of apoptosis in human LNCaP cells assessed as increase in cleaved capase-9 expression at 10 uM preincubated for 2 hrs followed by abiraterone addition and measured after 24 hrs by Western blotting analysis; assay type: functional, cell-based; details: time 26.0 hrs
LNCaP [12] = assay: Induction of apoptosis in human LNCaP cells assessed as increase in cleaved PARP expression at 10 uM preincubated for 2 hrs followed by abiraterone addition and measured after 24 hrs by Western blotting analysis; assay type: functional, cell-based; details: time 26.0 hrs
[13] = molecular target: T2, Cysteine protease ATG4B (Homo sapiens); assay: Inhibition of recombinant ATG4B (unknown origin) expressed in Escherichia coli BL21(DE3) pLysS cells at 100 uM using LC3-GST as substrate incubated for 3 hrs by coomassie brilliant blue staining based assay
LNCaP [14] = assay: Inhibition of AFM induced autophagy in human LNCaP cells assessed as decrease in autophagic vesicles at 1 uM preincubated for 2 hrs followed by medium change into aminoacid free medium for 3 hrs by DAP green staining based assay; assay type: functional, cell-based; details: time 5.0 hrs
LNCaP [15] = assay: Induction of apoptosis in human LNCaP cells assessed as increase in cleaved PARP level at 5 uM preincubated for 2 hrs followed by apalutamide addition and measured after 24 hrs by immunoblotting analysis; assay type: functional, cell-based; details: time 26.0 hrs
LNCaP [16] = assay: Induction of apoptosis in human LNCaP cells assessed as increase in cleaved PARP level at 5 uM preincubated for 2 hrs followed by abiraterone addition and measured after 24 hrs by immunoblotting analysis; assay type: functional, cell-based; details: time 26.0 hrs
LNCaP [17] = assay: Inhibition of AFM induced autophagy in human LNCaP cells assessed as restoration of p62 expression preincubated for 2 hrs followed by medium change into aminoacid free medium for 24 hrs by immunoblotting analysis; assay type: functional, cell-based; details: dose 1-10 µM, time 26.0 hrs, DDE = dose-dependent effect
[18] = Inhibition of AFM induced autophagy in human LNCaP cells assessed as decrease in autophagic vesicles at 5 uM preincubated for 2 hrs followed by medium change into aminoacid free medium for 3 hrs by DAP green staining based assay; assay type: functional; details: time 5 hrs
LNCaP [19] = assay: Induction of apoptosis in human LNCaP cells assessed as increase in cleaved PARP level at 5 uM preincubated for 2 hrs followed by cabazitaxel addition and measured after 24 hrs by immunoblotting analysis; assay type: functional, cell-based; details: time 26.0 hrs
LNCaP [20] = assay: Induction of apoptosis in human LNCaP cells assessed as increase in cleaved PARP level at 5 uM preincubated for 2 hrs followed by enzalutamide addition and measured after 24 hrs by immunoblotting analysis; assay type: functional, cell-based; details: time 26.0 hrs
LNCaP [21] = assay: Anticancer activity against human LNCaP cells assessed as reduction in cell viability incubated for 72 hrs by alamar blue assay; assay type: functional, cell-based; details: DDE = dose-dependent effect
LNCaP [22] = assay: Induction of apoptosis in human LNCaP cells assessed PARP cleavage at 10 uM incubated for 24 hrs by immunoblotting analysis; assay type: functional, cell-based
LNCaP [23] = assay: Induction of autophagy in human LNCaP cells assessed as increase in Ser403-phosphorylated P62 level at 1 to 10 uM incubated for 24 hrs by Western blot analysis; assay type: functional, cell-based; details: dose 1-10 µM
LNCaP [24] = assay: Induction of autophagy in human LNCaP cells assessed as increase in LC3-2 level at 1 to 10 uM incubated for 24 hrs by Western blot analysis; assay type: functional, cell-based; details: dose 1-10 µM
LNCaP [25] = assay: Induction of apoptosis in human LNCaP cells transfected with Atg4B siRNA at 10 uM incubated for 24 hrs by immunoblotting analysis; assay type: functional, cell-based
LNCaP [26] = assay: Induction of apoptosis in human LNCaP cells assessed as increase in cleaved capase-9 expression at 10 uM preincubated for 2 hrs followed by enzalutamide addition and measured after 24 hrs by Western blotting analysis; assay type: functional, cell-based; details: time 26.0 hrs
LNCaP [27] = assay: Induction of apoptosis in human LNCaP cells assessed as increase in cleaved PARP expression at 10 uM preincubated for 2 hrs followed by enzalutamide addition and measured after 24 hrs by Western blotting analysis; assay type: functional, cell-based; details: time 26.0 hrs

Sequence of Phospholipase A2 (P04054 whole entry): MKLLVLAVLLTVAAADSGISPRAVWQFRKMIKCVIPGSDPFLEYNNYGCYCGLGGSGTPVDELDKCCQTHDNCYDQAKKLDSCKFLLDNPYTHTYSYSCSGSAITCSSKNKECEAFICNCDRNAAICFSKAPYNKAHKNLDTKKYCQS

`CCCCCCCCCCCCCCCCCCCCCc1ccc(C(=O)/C=C/C(=O)O)cc1` gave an IC50 (Cysteine protease ATG4B [1]) of 42 µM.

Molecule `CCCCCCCc1ccc(C(=O)/C=C/C(=O)O)cc1` has an IC50 (Cysteine protease ATG4B [1]) of 26 µM, an IC50 (Phospholipase A2) of 5.9 µM and a Ratio IC50 (Homo sapiens) of 56.

`CCCCCCCCCCCCCCCc1ccc(C(=O)/C=C/C(=O)O)cc1` showed an IC50 (Cysteine protease ATG4B [1]) of 46 µM, an IC50 (Phospholipase A2) of 5.4 µM and a Ratio IC50 (Homo sapiens) of 29.

With `CCCCCCCCCCCCCCCCCCCc1ccc(C(=O)/C=C/C(=O)O)cc1` the IC50 (Cysteine protease ATG4B [1]) was 73 µM, the IC50 (Phospholipase A2) was 0.35 µM and the Ratio IC50 (Homo sapiens) was 12.

In the case of `CCCCCCCCCCc1ccc(C(=O)/C=C/C(=O)O)cc1`, the IC50 (Cysteine protease ATG4B [1]) is reported as 13 µM, the IC50 (Phospholipase A2) is reported as 1.6 µM and the Ratio IC50 (Homo sapiens) is reported as 30.

With `CCN(CC)CCCC(C)Nc1ccnc2cc(Cl)ccc12` (stereo unspecified) the Activity (LNCaP [2]) was “Active”.

With `CCCc1ccc(C(=O)/C=C/C(=O)O)cc1` the IC50 (Cysteine protease ATG4B [1]) was 130 µM.

Molecule `CCCCCc1ccc(C(=O)/C=C/C(=O)O)cc1` has an IC50 (Cysteine protease ATG4B [1]) of 36 µM, an IC50 (Phospholipase A2) of 30 µM and a Ratio IC50 (Homo sapiens) of 200.

In the case of `CCCCCCCCCCCCCCCCCCc1ccc(C(=O)/C=C/C(=O)O)cc1`, the inhibition [3] is reported as “Active”, the inhibition [4] is reported as “Active” and the inhibition [5] is reported as “Tde”. For the same molecule, the Ki (Cysteine protease ATG4B [6]) was 4.6 µM, the inhibition (LNCaP [7]) was “Active” and the inhibition (LNCaP [8]) was “Active”. The inhibition (LNCaP [9]) was “Active”, the inhibition (LNCaP [10]) was “Active” and the Activity (LNCaP [11]) was “Active”. For the same molecule, the Activity (LNCaP [12]) was “Active”, the IC50 (Cysteine protease ATG4B [1]) was 12 µM and the IC50 (Phospholipase A2) was 0.049 µM. The Ratio IC50 (Homo sapiens) was 1 and the inhibition [13] was “Active”.

`O=C(O)/C=C/C(=O)c1ccccc1` showed an IC50 (Cysteine protease ATG4B [1]) of 580 µM.

`CCCCCCCCCc1ccc(C(=O)/C=C/C(=O)O)cc1` gave an IC50 (Cysteine protease ATG4B [1]) of 21 µM, an IC50 (Phospholipase A2) of 8 µM and a Ratio IC50 (Homo sapiens) of 93.

Molecule `CCCCCCCCCCCCc1ccc(C(=O)/C=C/C(=O)O)cc1` has an IC50 (Cysteine protease ATG4B [1]) of 13 µM, an IC50 (Phospholipase A2) of 1.3 µM and a Ratio IC50 (Homo sapiens) of 24.

For `CCCCCCCCCCCCCc1ccc(C(=O)/C=C/C(=O)O)cc1`, the IC50 (Cysteine protease ATG4B [1]) was 21 µM, the IC50 (Phospholipase A2) was 7.1 µM and the Ratio IC50 (Homo sapiens) was 85.

For `CCCCCCCCCCCc1ccc(C(=O)/C=C/C(=O)O)cc1`, the inhibition (LNCaP [14]) was “Active”, the Activity (LNCaP [15]) was “Active” and the Ki (Cysteine protease ATG4B [6]) was 3.1 µM. The IC50 (Cysteine protease ATG4B [1]) was 11 µM, the IC50 (Phospholipase A2) was 3.5 µM and the Ratio IC50 (Homo sapiens) was 80. The Activity (LNCaP [16]) was “Active”, the inhibition (LNCaP [17]) was “Dde” and the inhibition at 5 µM [18] was 100%. The Activity (LNCaP [19]) was “Active” and the Activity (LNCaP [20]) was “Active”.

For `C[C@]12CC[C@H](O)CC1=CC[C@@H]1[C@@H]2CC[C@]2(C)C(c3cccnc3)=CC[C@@H]12`, the Activity (LNCaP [21]) was “Dde”, the Activity (LNCaP [22]) was “Active” and the Activity (LNCaP [23]) was “Active”. The Activity (LNCaP [24]) was “Active”, the Activity (LNCaP [25]) was “Active” and the Activity (LNCaP [26]) was “Active”. For the same molecule, the Activity (LNCaP [27]) was “Active”.

Molecule `CCCCCCCCCCCCCCCCCc1ccc(C(=O)/C=C/C(=O)O)cc1` has an IC50 (Cysteine protease ATG4B [1]) of 47 µM.
